pIC50: −log10 of the molar value.
Key:
BTK = BTK (Homo sapiens, UniProt Q06187); assay: BTK cell degradation in TMD-8 cells, HTRF assay; type: cell-based; design: endogenous in cells; host or cells: TMD-8 cells; details: 6 h treatment, IC50 (DC50) of BTK degradation
Summary of the method: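 TMD-8 cells treated 6 h with 8-dose series (6-fold dilutions, 0.2% DMSO final), then lysed and BTK quantified by HTRF (337/665/620 nm) after overnight antibody incubation at room temperature. Degradation normalized to DMSO high and low controls; DC50 and Dmax from four-parameter fit.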

HEK-293 cells = assay: HEK-293 cytotoxicity detection (CellTiter-Glo); type: cell-based; details: Homo sapiens, 72 h, 72 h incubation, CellTiter-Glo luminescence, read-out: HEK293
Summary of the method: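 HEK-293 cells exposed 72 h to 8 compounds doses (4-fold dilutions, top stock 5 mM at 500×) in 0.2% DMSO. Viability by CellTiter-Glo luminescence; inhibition normalised to DMSO high control and low control, IC50 from four-parameter curve fit.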

Sequence of BTK (Q06187 whole entry): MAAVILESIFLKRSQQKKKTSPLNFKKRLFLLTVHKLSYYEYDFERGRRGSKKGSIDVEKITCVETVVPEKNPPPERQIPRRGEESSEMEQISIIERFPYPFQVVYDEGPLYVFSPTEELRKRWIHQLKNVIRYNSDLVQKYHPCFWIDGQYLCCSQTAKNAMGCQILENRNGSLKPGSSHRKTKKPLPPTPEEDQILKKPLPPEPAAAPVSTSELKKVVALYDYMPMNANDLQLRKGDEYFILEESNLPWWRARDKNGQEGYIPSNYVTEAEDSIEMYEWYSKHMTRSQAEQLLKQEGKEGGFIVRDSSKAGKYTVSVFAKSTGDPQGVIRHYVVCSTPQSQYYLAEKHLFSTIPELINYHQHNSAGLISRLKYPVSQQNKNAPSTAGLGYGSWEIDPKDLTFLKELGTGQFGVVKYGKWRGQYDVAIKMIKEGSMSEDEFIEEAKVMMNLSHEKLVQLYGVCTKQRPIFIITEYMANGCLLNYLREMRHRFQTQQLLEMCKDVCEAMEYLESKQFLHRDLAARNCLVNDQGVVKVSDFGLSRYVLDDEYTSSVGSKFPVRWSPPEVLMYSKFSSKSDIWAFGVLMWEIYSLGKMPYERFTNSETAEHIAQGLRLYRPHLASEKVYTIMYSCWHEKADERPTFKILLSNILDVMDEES

| SMILES | DC50 (BTK) [nM] | pIC50 (HEK-293 cells) |
| --- | --- | --- |
| COc1ccc(C2CC2)cc1C(=O)NCc1ccc(-c2nn3c(c2C(N)=O)Nc2ccc(N4CCN(CC5CCN(c6ccc(N7CCC(=O)NC7=O)cc6)CC5)CC4)cc2CC3)cc1 [Example C29, 2-(4-((5-cyclopropyl-2-methoxybenzamido)methyl)phenyl)-7-(4-((1-(4-(2,4-dioxotetrahydropyrimidin-1(2H)-yl)phenyl)piperidin-4-yl)methyl)piperazin-1-yl)-9,10-dihydro-4H-benzo[d]pyrazolo[1,5-a][1,3]diazepine-3-carboxamide] | 1.56 | < 5.00 |
| COc1cc(F)c(F)cc1C(=O)NCc1ccc(-c2nn3c(c2C(N)=O)Nc2ccc(N4CCN(CC5CCN(c6ccc(N7CCC(=O)NC7=O)cc6)CC5)CC4)cc2CC3)cc1 [Example C30, 2-(4-((4,5-difluoro-2-methoxybenzamido)methyl)phenyl)-7-(4-((1-(4-(2,4-dioxotetrahydropyrimidin-1(2H)-yl)phenyl)piperidin-4-yl)methyl)piperazin-1-yl)-9,10-dihydro-4H-benzo[d]pyrazolo[1,5-a][1,3]diazepine-3-carboxamide] | 0.786 | < 5.00 |
| COc1ccncc1C(=O)NCc1ccc(-c2nn3c(c2C(N)=O)Nc2ccc(N4CCN(CC5CCN(c6ccc(N7CCC(=O)NC7=O)cc6)CC5)CC4)cc2CC3)cc1C [Example C35, 7-(4-((1-(4-(2,4-dioxotetrahydropyrimidin-1(2H)-yl)phenyl)piperidin-4-yl)methyl)piperazin-1-yl)-2-(4-((4-methoxynicotinamido)methyl)-3-methylphenyl)-9,10-dihydro-4H-benzo[d]pyrazolo[1,5-a][1,3]diazepine-3-carboxamide] | 1.1 | < 5.00 |
| COc1cccnc1C(=O)NCc1ccc(-c2nn3c(c2C(N)=O)Nc2ccc(N4CCN(CC5CCN(c6ccc(N7CCC(=O)NC7=O)cc6)CC5)CC4)cc2CC3)cc1C [Example C36] | 6.66 | < 5.00 |
| COc1cnccc1C(=O)NCc1ccc(-c2nn3c(c2C(N)=O)Nc2ccc(N4CCN(CC5CCN(c6ccc(N7CCC(=O)NC7=O)cc6)CC5)CC4)cc2CC3)cc1C [Example C37, 7-(4-((1-(4-(2,4-dioxotetrahydropyrimidin-1(2H)-yl)phenyl)piperidin-4-yl)methyl)piperazin-1-yl)-2-(4-((3-methoxyisonicotinamide)methyl)-3-methylphenyl)-9,10-dihydro-4H-benzo[d]pyrazolo[1,5-a][1,3]diazepine-3-carboxamide] | 12.4 | < 5.00 |
| COc1ccc(C)cc1C(=O)NCc1ccc(-c2nn3c(c2C(N)=O)Nc2ccc(N4CCN(CC5CCN(c6ccc(N7CCC(=O)NC7=O)cc6)CC5)CC4)cc2CC3)cc1C [Example C39, 7-(4-((1-(4-(2,4-dioxotetrahydropyrimidin-1(2H)-yl)phenyl)piperidin-4-yl)methyl)piperazin-1-yl)-2-(4-((2-methoxy-5-methylbenzamido)methyl)-3-methylphenyl)-9,10-dihydro-4H-benzo[d]pyrazolo[1,5-a][1,3]diazepine-3-carboxamide] | 8.52 | < 5.00 |
| COc1c(F)cccc1C(=O)NCc1ccc(-c2nn3c(c2C(N)=O)Nc2ccc(N4CCN(CC5CCN(c6ccc(N7CCC(=O)NC7=O)cc6)CC5)CC4)cc2CC3)cc1C [Example C40, 7-(4-((1-(4-(2,4-dioxotetrahydropyrimidin-1(2H)-yl)phenyl)piperidin-4-yl)methyl)piperazin-1-yl)-2-(4-((3-fluoro-2-methoxybenzamido)methyl)-3-methylphenyl)-9,10-dihydro-4H-benzo[d]pyrazolo[1,5-a][1,3]diazepine-3-carboxamide] | 10.5 | < 5.00 |
| COc1cc(F)ccc1C(=O)NCc1ccc(-c2nn3c(c2C(N)=O)Nc2ccc(N4CCN(CC5CCN(c6ccc(N7CCC(=O)NC7=O)cc6)CC5)CC4)cc2CC3)cc1C [Example C41, 7-(4-((1-(4-(2,4-dioxotetrahydropyrimidin-1(2H)-yl)phenyl)piperidin-4-yl)methyl)piperazin-1-yl)-2-(4-((4-fluoro-2-methoxybenzamido)methyl)-3-methylphenyl)-9,10-dihydro-4H-benzo[d]pyrazolo[1,5-a][1,3]diazepine-3-carboxamide] | 9.74 | < 5.00 |
| COc1c(F)c(F)c(F)c(F)c1C(=O)NCc1ccc(-c2nn3c(c2C(N)=O)Nc2ccc(N4CCN(CC5CCN(c6ccc(N7CCC(=O)NC7=O)cc6)CC5)CC4)cc2CC3)cc1C [Example C43, 7-(4-((1-(4-(2,4-dioxotetrahydropyrimidin-1(2H)-yl)phenyl)piperidin-4-yl)methyl)piperazin-1-yl)-2-(3-methyl-4-((2,3,4,5-tetrafluoro-6-methoxybenzamido)methyl)phenyl)-9,10-dihydro-4H-benzo[d]pyrazolo[1,5-a][1,3]diazepine-3-carboxamide] | 29.4 | 6.01 |
| COc1ccccc1C(=O)NCc1ccc(-c2nn3c(c2C(N)=O)Nc2ccc(N4CCN(CC5CCN(c6ccc(N7CCC(=O)NC7=O)cc6)CC5)CC4)cc2CC3)cc1C(F)(F)F [Example C45, 7-(4-((1-(4-(2,4-dioxotetrahydropyrimidin-1(2H)-yl)phenyl)piperidin-4-yl)methyl)piperazin-1-yl)-2-(4-((2-methoxybenzamido)methyl)-3-(trifluoromethyl)phenyl)-9,10-dihydro-4H-benzo[d]pyrazolo[1,5-a][1,3]diazepine-3-carboxamide] | 56.4 | < 5.00 |

The remaining compounds from weak to strong by DC50 (BTK), led by results:

| DC50 (BTK) [nM] | SMILES | pIC50 (HEK-293 cells) |
| --- | --- | --- |
| 9.19 | COc1cc(F)c(F)cc1C(=O)NCc1ccc(-c2nn3c(c2C(N)=O)Nc2ccc(N4CCN(CC5CCN(c6ccc(N7CCC(=O)NC7=O)cc6)CC5)CC4)cc2CC3)cc1C [Example C33, 2-(4-((4,5-difluoro-2-methoxybenzamido)methyl)-3-methylphenyl)-7-(4-((1-(4-(2,4-dioxotetrahydropyrimidin-1(2H)-yl)phenyl)piperidin-4-yl)methyl)piperazin-1-yl)-9,10-dihydro-4H-benzo[d]pyrazolo[1,5-a][1,3]diazepine-3-carboxamide] | < 5.00 |
| 7.96 | COc1cccc(C)c1C(=O)NCc1ccc(-c2nn3c(c2C(N)=O)Nc2ccc(N4CCN(CC5CCN(c6ccc(N7CCC(=O)NC7=O)cc6)CC5)CC4)cc2CC3)cc1C [Example C38, 7-(4-((1-(4-(2,4-dioxotetrahydropyrimidin-1(2H)-yl)phenyl)piperidin-4-yl)methyl)piperazin-1-yl)-2-(4-((2-methoxy-6-methylbenzamido)methyl)-3-methylphenyl)-9,10-dihydro-4H-benzo[d]pyrazolo[1,5-a][1,3]diazepine-3-carboxamide] | < 5.00 |
| 7.02 | COc1cc(C)ccc1C(=O)NCc1ccc(-c2nn3c(c2C(N)=O)Nc2ccc(N4CCN(CC5CCN(c6ccc(N7CCC(=O)NC7=O)cc6)CC5)CC4)cc2CC3)cc1C [Example C31, 7-(4-((1-(4-(2,4-dioxotetrahydropyrimidin-1(2H)-yl)phenyl)piperidin-4-yl)methyl)piperazin-1-yl)-2-(4-((2-methoxy-4-methylbenzamido)methyl)-3-methylphenyl)-9,10-dihydro-4H-benzo[d]pyrazolo[1,5-a][1,3]diazepine-3-carboxamide] | < 5.00 |
| 5.36 | COc1ccc(F)cc1C(=O)NCc1ccc(-c2nn3c(c2C(N)=O)Nc2ccc(N4CCN(CC5CCN(c6ccc(N7CCC(=O)NC7=O)cc6)CC5)CC4)cc2CC3)cc1C [Example C42, 7-(4-((1-(4-(2,4-dioxotetrahydropyrimidin-1(2H)-yl)phenyl)piperidin-4-yl)methyl)piperazin-1-yl)-2-(4-((5-fluoro-2-methoxybenzamido)methyl)-3-methylphenyl)-9,10-dihydro-4H-benzo[d]pyrazolo[1,5-a][1,3]diazepine-3-carboxamide] | < 5.00 |
| 3.91 | COc1ncccc1C(=O)NCc1ccc(-c2nn3c(c2C(N)=O)Nc2ccc(N4CCN(CC5CCN(c6ccc(N7CCC(=O)NC7=O)cc6)CC5)CC4)cc2CC3)cc1C [Example C34, 7-(4-((1-(4-(2,4-dioxotetrahydropyrimidin-1(2H)-yl)phenyl)piperidin-4-yl)methyl)piperazin-1-yl)-2-(4-((2-methoxynicotinamido)methyl)-3-methylphenyl)-9,10-dihydro-4H-benzo[d]pyrazolo[1,5-a][1,3]diazepine-3-carboxamide] | < 5.00 |
| 3.8 | COc1ccccc1C(=O)NCc1ccc(-c2nn3c(c2C(N)=O)Nc2ccc(N4CCN(CC5CCN(c6ccc(N7CCC(=O)NC7=O)cc6)CC5)CC4)cc2CC3)c(OC)c1 [Example C44, 7-(4-((1-(4-(2,4-dioxotetrahydropyrimidin-1(2H)-yl)phenyl)piperidin-4-yl)methyl)piperazin-1-yl)-2-(2-methoxy-4-((2-methoxybenzamido)methyl)phenyl)-9,10-dihydro-4H-benzo[d]pyrazolo[1,5-a][1,3]diazepine-3-carboxamide] | 6.19 |
| 3.1 | COc1ccccc1C(=O)NCc1ccc(-c2nn3c(c2C(N)=O)Nc2ccc(N4CCN(CC5CCN(c6ccc(N7CCC(=O)NC7=O)cc6)CC5)CC4)cc2CC3)cc1C [Example C32, 7-(4-((1-(4-(2,4-dioxotetrahydropyrimidin-1(2H)-yl)phenyl)piperidin-4-yl)methyl)piperazin-1-yl)-2-(4-((2-methoxybenzamido)methyl)-3-methylphenyl)-9,10-dihydro-4H-benzo[d]pyrazolo[1,5-a][1,3]diazepine-3-carboxamide] | < 5.00 |

Source: patent US20240246977A1, “DEGRADATION OF BRUTON'S TYROSINE KINASE (BTK) BY CONJUGATION OF BTK INHIBITORS WITH E3 LIGASE LIGAND AND METHOD OF USE” (BeiGene Switzerland GmbH, priority 2021, published 2024)
